Experimental data published in patent publication US10888561B2, “CGRP receptor antagonists” (Heptares Therapeutics Limited, priority 2015, dated 2021).

Tests used:
[1] = Thermodynamic solubility profiling; assay type: physicochemical; settings: PBS buffer pH 7.4, 24 h at rt
Procedure: Thermodynamic solubility profiling. A 50 mM DMSO stock solution of test compound was prepared, and from this, a working solution of 1 mM was prepared by dilution with DMSO. The UV absorbance of working solution was scanned from 220 nm to 1000 nm to identify the wavelength maxima of test compound. The 1 mM working solution was then serially diluted in DMSO to different concentrations to determine linearity/calibration curve. […] The resulting solution was then kept on a RotoSpin shaker at 50 rpm for 24 h at rt before the solution was filtered using 0.45 micron PVDF injector filters in order to remove the insoluble fraction of the compound. Subsequently, 150 uL of the filtrate is taken for quantification using a UV spectrophotometer, acquiring the optical density of standard solutions and test compound at the same wavelength maxima. From the optical density of test compound the thermodynamic solubility is calculated using the linearity/calibration curve and expressed as micromolar (μM). Solubility profiles of certain compounds of the invention are detailed in Table 7.

CGRP receptor = CGRP receptor (Homo sapiens (Human), UniProt O60894+Q16602); settings: literature; cited from earlier work
migraine = settings: humans, at 24 h after intravenous infusion of a 2.5 mg dose; cited from earlier work

CGRP receptor, sequence (Q16602 23-461): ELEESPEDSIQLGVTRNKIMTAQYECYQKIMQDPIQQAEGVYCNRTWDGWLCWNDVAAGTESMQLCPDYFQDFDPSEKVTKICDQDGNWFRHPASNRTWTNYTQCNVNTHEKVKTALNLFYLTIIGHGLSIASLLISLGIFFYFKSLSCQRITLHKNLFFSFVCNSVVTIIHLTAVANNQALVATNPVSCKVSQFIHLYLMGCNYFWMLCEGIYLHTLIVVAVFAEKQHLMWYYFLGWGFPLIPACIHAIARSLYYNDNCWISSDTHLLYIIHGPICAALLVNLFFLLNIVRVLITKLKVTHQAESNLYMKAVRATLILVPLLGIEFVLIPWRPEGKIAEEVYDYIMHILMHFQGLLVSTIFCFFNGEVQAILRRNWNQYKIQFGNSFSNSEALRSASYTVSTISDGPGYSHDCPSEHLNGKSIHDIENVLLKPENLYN
CGRP receptor, sequence (O60894 27-148): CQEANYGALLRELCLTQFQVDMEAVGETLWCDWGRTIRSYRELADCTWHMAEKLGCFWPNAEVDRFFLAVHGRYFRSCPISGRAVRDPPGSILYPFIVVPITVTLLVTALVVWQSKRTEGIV

Row | Structure (SMILES) | Thermodynamic solubility (μM) pH 7.4 [1] | kinetics at the CGRP receptor (CGRP receptor) | headache-free rate (migraine)
1 | Cc1cc(C[C@@H](NC(=O)N2CCC(N3Cc4ccccc4NC3=O)CC2)C(=O)N[C@@H](CC2CCNCC2)C(=O)N2CCN(c3ccncc3)CC2)cc2cn[nH]c12 [Example 10, N-[(2R)-3-(7-methyl-1H-indazol-5-yl)-1-oxo-1-({(2S) (2S)-1-oxo-3-(piperidin-4-yl)-1-[4-(pyridin-4-yl)piperazin-1-yl]propan-2-yl}amino)propan-2-yl]-4-(2-oxo-1,4-dihydroquinazolin-3(2H)-yl)piperidine-1-carboxamide] | 1205 μM | – | –
2 | O=C(CN1C(=O)C2(CCCC2)NC[C@H]1c1cc(F)cc(F)c1)Nc1ccc2c(c1)C[C@@]1(C2)C(=O)Nc2ncccc21 [MK-3207] | – | relatively slow dissociation | –
3 | NCCCC[C@H](NC(=O)[C@@H](Cc1cc(Br)c(O)c(Br)c1)NC(=O)N1CCC(N2Cc3ccccc3NC2=O)CC1)C(=O)N1CCN(c2ccncc2)CC1 [olcegepant] | – | slow kinetics | 47%
